From ChEMBL document CHEMBL1147252, “New bromotyrosine derivatives from an association of two sponges, Jaspis wondoensis and Poecillastra wondoensis” (2003)
In brackets after ≈: the same amount, converted by molar mass.

Assays:
Format in all cases: functional
Staphylococcus aureus [1] = experiment: Antibacterial activity against methicillin-resistant Staphylococcus aureus KIST4 after 18 hrs
Staphylococcus aureus [2] = experiment: Antibacterial activity against methicillin-resistant Staphylococcus aureus KIST2 after 18 hrs
Staphylococcus aureus [3] = experiment: Antibacterial activity against methicillin-resistant Staphylococcus aureus Y-80-12-1999 after 18 hrs
XF498 = experiment: Cytotoxicity against human XF498 cells; conditions: read-out: ED50 (the source's name)
[4] = system: Staphylococcus epidermidis; experiment: Antibacterial activity against ofloxacin-resistant Staphylococcus epidermidis 178 after 18 hrs
Staphylococcus aureus [5] = experiment: Antibacterial activity against methicillin-resistant Staphylococcus aureus KIST3 after 18 hrs
Staphylococcus aureus [6] = experiment: Antibacterial activity against methicillin-resistant Staphylococcus aureus Y-80-12-1109 after 18 hrs
SK-MEL-2 = experiment: Cytotoxicity against human SK-MEL-2 cells; conditions: read-out: ED50 (the source's name)
Staphylococcus aureus [7] = experiment: Antibacterial activity against methicillin-resistant Staphylococcus aureus 003 after 18 hrs
Staphylococcus aureus [8] = experiment: Antibacterial activity against methicillin-resistant Staphylococcus aureus KIST1 after 18 hrs
Staphylococcus aureus [9] = experiment: Antibacterial activity against methicillin-resistant Staphylococcus aureus 004 after 18 hrs
[10] = system: Staphylococcus epidermidis; experiment: Antibacterial activity against ofloxacin-resistant Staphylococcus epidermidis 291 after 18 hrs
A549 = experiment: Cytotoxicity against human A549 cells; conditions: read-out: ED50 (the source's name)
Staphylococcus aureus [11] = experiment: Antibacterial activity against methicillin-resistant Staphylococcus aureus Y-80-12-844 after 18 hrs
SK-OV-3 = experiment: Cytotoxicity against human SKOV3 cells; conditions: read-out: ED50 (the source's name)
HCT-15 = experiment: Cytotoxicity against human HCT15 cells; conditions: read-out: ED50 (the source's name)

SMILES | MIC (Staphylococcus aureus [1]) [µg/mL] | MIC (Staphylococcus aureus [2]) [µg/mL] | MIC (Staphylococcus aureus [3]) [µg/mL] | EC50 (XF498) [µg/mL] | MIC [4] [µg/mL] | MIC (Staphylococcus aureus [5]) [µg/mL] | MIC (Staphylococcus aureus [6]) [µg/mL] | EC50 (SK-MEL-2) [µg/mL] | MIC (Staphylococcus aureus [7]) [µg/mL] | MIC (Staphylococcus aureus [8]) [µg/mL] | MIC (Staphylococcus aureus [9]) [µg/mL] | MIC [10] [µg/mL] | EC50 (A549) [µg/mL] | MIC (Staphylococcus aureus [11]) [µg/mL] | EC50 (SK-OV-3) [µg/mL] | EC50 (HCT-15) [µg/mL]
O=C(NCCSSCCNC(=O)/C(Cc1cc(Br)c(O)c(Br)c1)=N/O)/C(Cc1ccc(O)c(Br)c1)=N/O | 12.5 (≈ 16.8 µM) | 12.5 (≈ 16.8 µM) | 12.5 (≈ 16.8 µM) | 0.92 (≈ 1.24 µM) | 3.2 (≈ 4.31 µM) | 12.5 (≈ 16.8 µM) | 12.5 (≈ 16.8 µM) | 0.9 (≈ 1.21 µM) | 12.5 (≈ 16.8 µM) | 12.5 (≈ 16.8 µM) | 12.5 (≈ 16.8 µM) | 3.2 (≈ 4.31 µM) | 1.34 (≈ 1.8 µM) | 25 (≈ 33.6 µM) | 1.38 (≈ 1.86 µM) | 3.31 (≈ 4.45 µM)
O=C(NCCSSCCNC(=O)/C(Cc1cc(Br)c(O)c(-c2cc(C/C(=N\O)C(=O)NCCSSCCNC(=O)/C(Cc3ccc(O)c(Br)c3)=N/O)cc(Br)c2O)c1)=N/O)/C(Cc1ccc(O)c(Br)c1)=N/O [BISAPRASIN] | 6.3 (≈ 4.75 µM) | 6.3 (≈ 4.75 µM) | 50 (≈ 37.7 µM) | 2.44 (≈ 1.84 µM) | 6.3 (≈ 4.75 µM) | 6.3 (≈ 4.75 µM) | 50 (≈ 37.7 µM) | 2.94 (≈ 2.22 µM) | 12.5 (≈ 9.42 µM) | 12.5 (≈ 9.42 µM) | 6.3 (≈ 4.75 µM) | 12.5 (≈ 9.42 µM) | 3.4 (≈ 2.56 µM) | 25 (≈ 18.8 µM) | 2.78 (≈ 2.1 µM) | 6 (≈ 4.52 µM)
O=C(NCCSSCCNC(=O)/C(Cc1ccc(Oc2cc(C/C(=N\O)C(=O)NCCSSCCNC(=O)/C(Cc3ccc(O)c(Br)c3)=N/O)cc(Br)c2O)c(Br)c1)=N/O)/C(Cc1ccc(O)c(Br)c1)=N/O [BISPSAMMAPLIN A] | > 50 | > 50 | > 50 | 1.1 (≈ 0.829 µM) | > 50 | > 50 | > 50 | 1.02 (≈ 0.769 µM) | > 50 | > 50 | > 50 | > 50 | 1.53 (≈ 1.15 µM) | > 50 | 1.52 (≈ 1.15 µM) | 3.35 (≈ 2.52 µM)
C[C@@H](O)[C@H]1C(=O)N2C(C(=O)O)=C(S[C@@H]3CN[C@H](C(=O)N(C)C)C3)[C@H](C)[C@H]12 [MEROPENEM] | 50 (≈ 130 µM) | 3.1 (≈ 8.08 µM) | 50 (≈ 130 µM) |  | 0.8 (≈ 2.09 µM) | 50 (≈ 130 µM) | 50 (≈ 130 µM) |  | 3.1 (≈ 8.08 µM) | 25 (≈ 65.2 µM) | 3.1 (≈ 8.08 µM) | 1.6 (≈ 4.17 µM) |  | 50 (≈ 130 µM) |  | 
COC(=O)NCCSSCCNC(=O)/C(Cc1ccc(O)c(Br)c1)=N/O [PSAMMAPLIN D] | > 25 | > 25 | > 25 | 0.6 (≈ 1.29 µM) | > 25 | > 25 | > 25 | 0.2 (≈ 0.429 µM) | > 25 | > 25 | > 25 | > 25 | 0.8 (≈ 1.72 µM) | > 25 | 0.17 (≈ 0.365 µM) | 1.23 (≈ 2.64 µM)
O=C(NCCSSSCCNC(=O)/C(Cc1ccc(O)c(Br)c1)=N/O)/C(Cc1ccc(O)c(Br)c1)=N/O | 3.1 (≈ 4.45 µM) | 3.1 (≈ 4.45 µM) | 6.3 (≈ 9.05 µM) |  | 0.8 (≈ 1.15 µM) | 6.3 (≈ 9.05 µM) | 6.3 (≈ 9.05 µM) |  | 3.1 (≈ 4.45 µM) | 3.1 (≈ 4.45 µM) | 3.1 (≈ 4.45 µM) | 0.8 (≈ 1.15 µM) |  | 25 (≈ 35.9 µM) |  | 
O=C(NCCSSCCNC(=O)/C(Cc1ccc(O)c(Br)c1)=N/O)/C(Cc1ccc(O)c(Br)c1)=N/O [PSAMMAPLIN A] |  |  |  | 0.57 (≈ 0.858 µM) |  |  |  | 0.13 (≈ 0.196 µM) |  |  |  |  | 0.57 (≈ 0.858 µM) |  | 0.14 (≈ 0.211 µM) | 0.68 (≈ 1.02 µM)
COc1cccc2c1C(=O)c1c(O)c3c(c(O)c1C2=O)C[C@@](O)(C(=O)CO)C[C@@H]3O[C@H]1C[C@H](N)[C@H](O)[C@H](C)O1 [DOXORUBICIN] |  |  |  | 0.1 (≈ 0.184 µM) |  |  |  | 0.03 (≈ 0.0552 µM) |  |  |  |  | 0.04 (≈ 0.0736 µM) |  | 0.15 (≈ 0.276 µM) | 0.09 (≈ 0.166 µM)
